In the supplement of paper PMC11451515:

System: NOMO1
Assay: cell viability relative to DMSO control; higher = less cytotoxic
Settings: 48 h
Procedure, shortened: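 Viability is a per-plate percentage relative to DMSO wells, with cell-free wells as background. CellTiter-Glo One luminescence was read after 48 h at 37°C on 1536-well plates (5 μl) of NOMO1 or SEM (500 cells/well) or P12-Ichikawa (1000 cells/well) leukemia cells. The cells had been adapted for at least four passages in each medium and pin-dosed with library compounds in DMSO from 47 μM to 0.79 nM in 11 threefold steps.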

[1] = HPLM + 10% dialyzed FBS, 0.000781 µM
[2] = HPLM + 10% dialyzed FBS, 0.00234 µM
[3] = HPLM + 10% dialyzed FBS, 0.00702 µM
[4] = HPLM + 10% dialyzed FBS, 0.0211 µM
[5] = HPLM + 10% dialyzed FBS, 0.0632 µM
[6] = HPLM + 10% dialyzed FBS, 0.19 µM
[7] = HPLM + 10% dialyzed FBS, 0.569 µM
[8] = HPLM + 10% dialyzed FBS, 1.71 µM
[9] = HPLM + 10% dialyzed FBS, 5.12 µM
[10] = HPLM + 10% dialyzed FBS, 15.4 µM
[11] = HPLM + 10% dialyzed FBS, 46.1 µM
[12] = RPMI 5 mM glucose + 10% FBS, 0.000781 µM
[13] = RPMI 5 mM glucose + 10% FBS, 0.00234 µM
[14] = RPMI 5 mM glucose + 10% FBS, 0.00702 µM
[15] = RPMI 5 mM glucose + 10% FBS, 0.0211 µM
[16] = RPMI 5 mM glucose + 10% FBS, 0.0632 µM
[17] = RPMI 5 mM glucose + 10% FBS, 0.19 µM
[18] = RPMI 5 mM glucose + 10% FBS, 0.569 µM
[19] = RPMI 5 mM glucose + 10% FBS, 1.71 µM
[20] = RPMI 5 mM glucose + 10% FBS, 5.12 µM
[21] = RPMI 5 mM glucose + 10% FBS, 15.4 µM
[22] = RPMI 5 mM glucose + 10% FBS, 46.1 µM
[23] = RPMI 5 mM glucose + 10% dialyzed FBS, 0.000781 µM
[24] = RPMI 5 mM glucose + 10% dialyzed FBS, 0.00234 µM
[25] = RPMI 5 mM glucose + 10% dialyzed FBS, 0.00702 µM
[26] = RPMI 5 mM glucose + 10% dialyzed FBS, 0.0211 µM
[27] = RPMI 5 mM glucose + 10% dialyzed FBS, 0.0632 µM
[28] = RPMI 5 mM glucose + 10% dialyzed FBS, 0.19 µM
[29] = RPMI 5 mM glucose + 10% dialyzed FBS, 0.569 µM
[30] = RPMI 5 mM glucose + 10% dialyzed FBS, 1.71 µM
[31] = RPMI 5 mM glucose + 10% dialyzed FBS, 5.12 µM
[32] = RPMI 5 mM glucose + 10% dialyzed FBS, 15.4 µM
[33] = RPMI 5 mM glucose + 10% dialyzed FBS, 46.1 µM

Compound	cell viability [1]	cell viability [2]	cell viability [3]	cell viability [4]	cell viability [5]	cell viability [6]	cell viability [7]	cell viability [8]	cell viability [9]	cell viability [10]	cell viability [11]	cell viability [12]	cell viability [13]	cell viability [14]	cell viability [15]	cell viability [16]	cell viability [17]	cell viability [18]	cell viability [19]	cell viability [20]	cell viability [21]	cell viability [22]	cell viability [23]	cell viability [24]	cell viability [25]	cell viability [26]	cell viability [27]	cell viability [28]	cell viability [29]	cell viability [30]	cell viability [31]	cell viability [32]	cell viability [33]
CC(C)OC(=O)OCOP(=O)(CO[C@H](C)Cn1cnc2c(N)ncnc21)OCOC(=O)OC(C)C.O=C(O)C=CC(=O)O	98.7%	120%	120%	105%	133%	129%	126%	123%	104%	89.6%	53.1%	95.8%	121%	125%	116%	115%	128%	109%	118%	115%	103%	38.6%	117%	117%	112%	117%	124%	122%	128%	124%	114%	102%	15.1%
CN(CC#C)C/C1=C/C2=CC=CC=C2OC3=CC=CC=C13	82.4%	98.5%	91.5%	89.2%	98.9%	91.2%	85.2%	70.4%	82.3%	65.1%	64%	81.3%	85.1%	82.2%	94.4%	86.3%	77.5%	92.6%	81.3%	80%	85.1%	75.5%	89.1%	81.7%	83.8%	87%	91.5%	78.4%	81.1%	84.4%	93.6%	87.1%	80.6%
N=C(CCSCc1csc(N=C(N)N)n1)N[S+](N)(=O)[O-]	87%	95.6%	110%	101%	99.1%	83.2%	101%	115%	101%	91.8%	107%	80.2%	94.7%	94.8%	92%	92.2%	97.5%	93.8%	88.1%	99.1%	86.8%	88.3%	84.7%	96%	89.9%	92.1%	100%	106%	95.7%	93.7%	100%	97%	103%
